Measured values: US6355799B1, “Substituted benzene compounds, process for their preparation, and herbicidal and defoliant compositions containing them” (ISK Americas Incorporated, priority 1997, dated 2002)

Assays:
Type in all cases: in vivo
[1] = system: redroot pigweed (Amaranthus retroflexus, AMARE); assay: Pre-emerge test, greenhouse herbicide activity screening; conditions: rated 14 days after application, 0 = no damage, 100 = complete death
In short: (§1)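 Visual ratings on a 0-100 scale (0 no damage, 100 all plants dead) were taken at 14 days after treatment. Rates of 15-1000 g ai/ha in acetone, 187 l/ha, were sprayed onto soil one day after planting (pre-emerge) or onto 2-3 leaf plants with 0.25% v/v surfactant (post-emerge).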

[2] = system: barnyardgrass (Echinochloa crus-galli, ECHCG); assay: as above; conditions: rated 14 days after application, 0 = no damage, 100 = complete death
In short: as §1

[3] = system: common ragweed (Ambrosia artemisizfolia L., AMBEL); assay: as above; conditions: rated 14 days after application, 0 = no damage, 100 = complete death
In short: as §1

[4] = system: green foxtail (Setaria viridis, SETVI); assay: as above; conditions: rated 14 days after application, 0 = no damage, 100 = complete death
In short: as §1

[5] = system: ivyleaf morningglory (Ipomoea hederacea, IPOHE); assay: as above; conditions: rated 14 days after application, 0 = no damage, 100 = complete death
In short: as §1

[6] = system: johnsongrass (Sorghum halepense, SORHA); assay: as above; conditions: rated 14 days after application, 0 = no damage, 100 = complete death
In short: as §1

[7] = system: lambsquarters (Chenopodium album, CHEAL); assay: as above; conditions: rated 14 days after application, 0 = no damage, 100 = complete death
In short: as §1

[8] = system: large crabgrass (Digitaria sanguinalis, DIGSA); assay: as above; conditions: rated 14 days after application, 0 = no damage, 100 = complete death
In short: as §1

[9] = system: sicklepod (Cassia obtusifolia, CASOB); assay: as above; conditions: rated 14 days after application, 0 = no damage, 100 = complete death
In short: as §1

[10] = system: velvetleaf (Abutilon theophrasti, ABUTH); assay: as above; conditions: rated 14 days after application, 0 = no damage, 100 = complete death
In short: as §1

[11] = system: field corn (Zea mays L., var. Dekalb 535, CORN); assay: Pre-emerge test, crop safety; conditions: rated 14 days after application, 0 = no damage, 100 = complete death
In short: (§2)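 Herbicidal damage is scored 0 (none) to 100 (complete plant death) two weeks after a simulated field spray. Rates span 15–1000 g ai/ha, delivered in acetone at 187 l/ha. For post-emergence treatments, plants have 2–3 leaves and the spray carries 0.25% v/v non-ionic surfactant.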

[12] = system: upland rice (Oryza sp., var. Tebonnet, RICE); assay: Pre-emerge test, crop safety; conditions: rated 14 days after application, 0 = no damage, 100 = complete death
In short: as §2

[13] = system: barnyardgrass (Echinochloa crus-galli, ECHCG); assay: Post-emerge test, greenhouse herbicide activity screening; conditions: post-emerge, 14 days after application, rating scale 0-100
In short: (§3)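 Compounds in acetone were track-sprayed at 15–1000 g ai/ha: pre-emergence onto soil sown the previous day, then top-watered to incorporate and later bottom-watered; post-emergence onto 2–3 leaf plants with 0.25% v/v surfactant, bottom-watered only. Ratings on a 0–100 phytotoxicity scale were taken at day 14.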

[14] = system: common ragweed (Ambrosia artemisizfolia L., AMBEL); assay: as above; conditions: post-emerge, 14 days after application, rating scale 0-100
In short: as §3

[15] = system: green foxtail (Setaria viridis, SETVI); assay: as above; conditions: post-emerge, 14 days after application, rating scale 0-100
In short: as §3

[16] = system: ivyleaf morningglory (Ipomoea hederacea, IPOHE); assay: as above; conditions: post-emerge, 14 days after application, rating scale 0-100
In short: as §3

[17] = system: johnsongrass (Sorghum halepense, SORHA); assay: as above; conditions: post-emerge, 14 days after application, rating scale 0-100
In short: as §3

[18] = system: lambsquarters (Chenopodium album, CHEAL); assay: as above; conditions: post-emerge, 14 days after application, rating scale 0-100
In short: as §3

[19] = system: large crabgrass (Digitaria sanguinalis, DIGSA); assay: as above; conditions: post-emerge, 14 days after application, rating scale 0-100
In short: as §3

[20] = system: redroot pigweed (Amaranthus retroflexus, AMARE); assay: as above; conditions: post-emerge, 14 days after application, rating scale 0-100
In short: as §3

[21] = system: sicklepod (Cassia obtusifolia, CASOB); assay: as above; conditions: post-emerge, 14 days after application, rating scale 0-100
In short: as §3

[22] = system: velvetleaf (Abutilon theophrasti, ABUTH); assay: as above; conditions: post-emerge, 14 days after application, rating scale 0-100
In short: as §3

[23] = system: field corn (Zea mays L., var. Dekalb 535, CORN); assay: Post-emerge test, crop safety; conditions: post-emerge, 14 days after application, rating scale 0-100
In short: as §1

[24] = system: upland rice (Oryza sp., var. Tebonnet, RICE); assay: Post-emerge test, crop safety; conditions: post-emerge, 14 days after application, rating scale 0-100
In short: as §1

Compound: COc1c(Cl)cc(F)c(-n2c(=O)cc(C(F)(F)F)n(C)c2=O)c1NC(=O)c1cccc(Cl)c1 [2-54]
- Pre-emerge Herbicidal Activity, phytotoxicity rating (0-100), AMARE ([1]; 63 g ai/ha): 100
- Pre-emerge Herbicidal Activity, phytotoxicity rating (0-100), AMARE ([1]; 250 g ai/ha): 100
- Pre-emerge Herbicidal Activity, phytotoxicity rating (0-100), ECHCG ([2]; 63 g ai/ha): 90
- Pre-emerge Herbicidal Activity, phytotoxicity rating (0-100), ECHCG ([2]; 250 g ai/ha): 100
- Pre-emerge Herbicidal Activity, phytotoxicity rating (0-100), AMBEL ([3]; 63 g ai/ha): 100
- Pre-emerge Herbicidal Activity, phytotoxicity rating (0-100), AMBEL ([3]; 250 g ai/ha): 100
- Pre-emerge Herbicidal Activity, phytotoxicity rating (0-100), SETVI ([4]; 63 g ai/ha): 100
- Pre-emerge Herbicidal Activity, phytotoxicity rating (0-100), SETVI ([4]; 250 g ai/ha): 100
- Pre-emerge Herbicidal Activity, phytotoxicity rating (0-100), IPOHE ([5]; 63 g ai/ha): 85
- Pre-emerge Herbicidal Activity, phytotoxicity rating (0-100), IPOHE ([5]; 250 g ai/ha): 100
- Pre-emerge Herbicidal Activity, phytotoxicity rating (0-100), SORHA ([6]; 63 g ai/ha): 90
- Pre-emerge Herbicidal Activity, phytotoxicity rating (0-100), SORHA ([6]; 250 g ai/ha): 100
- Pre-emerge Herbicidal Activity, phytotoxicity rating (0-100), CHEAL ([7]; 63 g ai/ha): 100
- Pre-emerge Herbicidal Activity, phytotoxicity rating (0-100), CHEAL ([7]; 250 g ai/ha): 100
- Pre-emerge Herbicidal Activity, phytotoxicity rating (0-100), DIGSA ([8]; 63 g ai/ha): 100
- Pre-emerge Herbicidal Activity, phytotoxicity rating (0-100), DIGSA ([8]; 250 g ai/ha): 100
- Pre-emerge Herbicidal Activity, phytotoxicity rating (0-100), CASOB ([9]; 63 g ai/ha): 100
- Pre-emerge Herbicidal Activity, phytotoxicity rating (0-100), CASOB ([9]; 250 g ai/ha): 100
- Pre-emerge Herbicidal Activity, phytotoxicity rating (0-100), ABUTH ([10]; 63 g ai/ha): 100
- Pre-emerge Herbicidal Activity, phytotoxicity rating (0-100), ABUTH ([10]; 250 g ai/ha): 100
- Pre-emerge phytotoxicity rating (0-100), crop damage, CORN ([11]; 63 g ai/ha): 90
- Pre-emerge phytotoxicity rating (0-100), crop damage, CORN ([11]; 250 g ai/ha): 98
- Pre-emerge phytotoxicity rating (0-100), crop damage, RICE ([12]; 63 g ai/ha): 70
- Pre-emerge phytotoxicity rating (0-100), crop damage, RICE ([12]; 250 g ai/ha): 90
- phytotoxicity rating ECHCG ([13]; 63 g ai/ha): 20
- phytotoxicity rating ECHCG ([13]; 250 g ai/ha): 90
- phytotoxicity rating AMBEL ([14]; 63 g ai/ha): 90
- phytotoxicity rating AMBEL ([14]; 250 g ai/ha): 100
- phytotoxicity rating SETVI ([15]; 63 g ai/ha): 10
- phytotoxicity rating SETVI ([15]; 250 g ai/ha): 50
- phytotoxicity rating IPOHE ([16]; 63 g ai/ha): 100
- phytotoxicity rating IPOHE ([16]; 250 g ai/ha): 100
- phytotoxicity rating SORHA ([17]; 63 g ai/ha): 50
- phytotoxicity rating SORHA ([17]; 250 g ai/ha): 80
- phytotoxicity rating CHEAL ([18]; 63 g ai/ha): 100
- phytotoxicity rating CHEAL ([18]; 250 g ai/ha): 100
- phytotoxicity rating DIGSA ([19]; 63 g ai/ha): 10
- phytotoxicity rating DIGSA ([19]; 250 g ai/ha): 20
- phytotoxicity rating AMARE ([20]; 63 g ai/ha): 100
- phytotoxicity rating AMARE ([20]; 250 g ai/ha): 100
- phytotoxicity rating CASOB ([21]; 63 g ai/ha): 90
- phytotoxicity rating CASOB ([21]; 250 g ai/ha): 100
- phytotoxicity rating ABUTH ([22]; 63 g ai/ha): 100
- phytotoxicity rating ABUTH ([22]; 250 g ai/ha): 100
- phytotoxicity rating CORN ([23]; 63 g ai/ha): 80
- phytotoxicity rating CORN ([23]; 250 g ai/ha): 80
- phytotoxicity rating RICE ([24]; 63 g ai/ha): 90
- phytotoxicity rating RICE ([24]; 250 g ai/ha): 95

Compound: COc1c(Cl)cc(F)c(-n2c(=O)cc(C(F)(F)F)n(C)c2=O)c1NC(=O)c1ccc(Cl)cc1 [2-56]
- Pre-emerge Herbicidal Activity, phytotoxicity rating (0-100), AMARE ([1]; 63 g ai/ha): 100
- Pre-emerge Herbicidal Activity, phytotoxicity rating (0-100), AMARE ([1]; 250 g ai/ha): 100
- Pre-emerge Herbicidal Activity, phytotoxicity rating (0-100), ECHCG ([2]; 63 g ai/ha): 90
- Pre-emerge Herbicidal Activity, phytotoxicity rating (0-100), ECHCG ([2]; 250 g ai/ha): 100
- Pre-emerge Herbicidal Activity, phytotoxicity rating (0-100), AMBEL ([3]; 63 g ai/ha): 100
- Pre-emerge Herbicidal Activity, phytotoxicity rating (0-100), AMBEL ([3]; 250 g ai/ha): 100
- Pre-emerge Herbicidal Activity, phytotoxicity rating (0-100), SETVI ([4]; 63 g ai/ha): 100
- Pre-emerge Herbicidal Activity, phytotoxicity rating (0-100), SETVI ([4]; 250 g ai/ha): 100
- Pre-emerge Herbicidal Activity, phytotoxicity rating (0-100), IPOHE ([5]; 63 g ai/ha): 100
- Pre-emerge Herbicidal Activity, phytotoxicity rating (0-100), IPOHE ([5]; 250 g ai/ha): 100
- Pre-emerge Herbicidal Activity, phytotoxicity rating (0-100), SORHA ([6]; 63 g ai/ha): 99
- Pre-emerge Herbicidal Activity, phytotoxicity rating (0-100), SORHA ([6]; 250 g ai/ha): 100
- Pre-emerge Herbicidal Activity, phytotoxicity rating (0-100), CHEAL ([7]; 63 g ai/ha): 100
- Pre-emerge Herbicidal Activity, phytotoxicity rating (0-100), CHEAL ([7]; 250 g ai/ha): 100
- Pre-emerge Herbicidal Activity, phytotoxicity rating (0-100), DIGSA ([8]; 63 g ai/ha): 100
- Pre-emerge Herbicidal Activity, phytotoxicity rating (0-100), DIGSA ([8]; 250 g ai/ha): 100
- Pre-emerge Herbicidal Activity, phytotoxicity rating (0-100), CASOB ([9]; 63 g ai/ha): 100
- Pre-emerge Herbicidal Activity, phytotoxicity rating (0-100), CASOB ([9]; 250 g ai/ha): 100
- Pre-emerge Herbicidal Activity, phytotoxicity rating (0-100), ABUTH ([10]; 63 g ai/ha): 100
- Pre-emerge Herbicidal Activity, phytotoxicity rating (0-100), ABUTH ([10]; 250 g ai/ha): 100
- Pre-emerge phytotoxicity rating (0-100), crop damage, CORN ([11]; 63 g ai/ha): 80
- Pre-emerge phytotoxicity rating (0-100), crop damage, CORN ([11]; 250 g ai/ha): 95
- Pre-emerge phytotoxicity rating (0-100), crop damage, RICE ([12]; 63 g ai/ha): 30
- Pre-emerge phytotoxicity rating (0-100), crop damage, RICE ([12]; 250 g ai/ha): 95
- phytotoxicity rating ECHCG ([13]; 63 g ai/ha): 0
- phytotoxicity rating ECHCG ([13]; 250 g ai/ha): 50
- phytotoxicity rating AMBEL ([14]; 63 g ai/ha): 70
- phytotoxicity rating AMBEL ([14]; 250 g ai/ha): 100
- phytotoxicity rating SETVI ([15]; 63 g ai/ha): 80
- phytotoxicity rating SETVI ([15]; 250 g ai/ha): 60
- phytotoxicity rating IPOHE ([16]; 63 g ai/ha): 100
- phytotoxicity rating IPOHE ([16]; 250 g ai/ha): 100
- phytotoxicity rating SORHA ([17]; 63 g ai/ha): 0
- phytotoxicity rating SORHA ([17]; 250 g ai/ha): 60
- phytotoxicity rating CHEAL ([18]; 63 g ai/ha): 100
- phytotoxicity rating CHEAL ([18]; 250 g ai/ha): 100
- phytotoxicity rating DIGSA ([19]; 63 g ai/ha): 0
- phytotoxicity rating DIGSA ([19]; 250 g ai/ha): 30
- phytotoxicity rating AMARE ([20]; 63 g ai/ha): 100
- phytotoxicity rating AMARE ([20]; 250 g ai/ha): 100
- phytotoxicity rating CASOB ([21]; 63 g ai/ha): 100
- phytotoxicity rating CASOB ([21]; 250 g ai/ha): 100
- phytotoxicity rating ABUTH ([22]; 63 g ai/ha): 100
- phytotoxicity rating ABUTH ([22]; 250 g ai/ha): 100
- phytotoxicity rating CORN ([23]; 63 g ai/ha): 30
- phytotoxicity rating CORN ([23]; 250 g ai/ha): 80
- phytotoxicity rating RICE ([24]; 63 g ai/ha): 45
- phytotoxicity rating RICE ([24]; 250 g ai/ha): 90
